Assay results taken from patent US20090149417A1, “Methods and compositions for the treatment of cancer using benzopyrone-type PARP inhibitors” (priority 2007, published 2009).

Assays:
[1] = test system: Colo357FG; assay: Luciferase-expressing pancreatic cancer orthotopic nude mouse model; type: in vivo
Protocol: The therapeutic efficacy of IIIg on tumor growth and survival is evaluated in different luciferase-expressing pancreatic cancer orthotopic nude mouse models using an IVIS100 Imaging System, allowing a quantitative real time monitoring of tumor growth.
Mice are monitored daily for signs of toxicity including weight loss, diarrhea, inactivity, and general appearance.
Three days after the orthotopic implantation of 1.0×10^6 COL0357FG tumor cells in 50 μL of HBSS, when bioluminescence imaging confirmed that tumors are well established, in one experiment, mice are randomly allocated into three groups (n=10 mice per group) to receive one of the following treatments. (a) Vehicle solution for 50 μL of sterile saline; (b) IIIg (25 mg/kg) biweekly i.p.; (c) IIIg (100 mg/kg) biweekly i.p. Treatments are continued for 4 weeks. All mice are weighed weekly and observed for tumor growth. Tumor diameter is assessed with a Vernier caliper, and tumor volume (mm^3) is calculated as d^2×D/2, wherein d and D represent the shortest and longest diameters, respectively. Bulky disease is considered present when tumor burden is prominent in the mouse abdomen (tumor volume, >=2,000 mm^3).
In another experiment, mice are randomly allocated into four groups (n=10 mice per group) to receive one of the following treatments. (a) Vehicle solution for 50 μL of sterile saline; (b) IIIg (200 mg/kg) once weekly i.p.; (c) IIIg (100 mg/kg) biweekly i.p; (d) IIIg (40 mg/kg) once daily i.p. Treatments are continued for 4 weeks. All mice are weighed weekly and observed for tumor growth. Tumor diameter is assessed with a Vernier caliper, and tumor volume (mm^3) is calculated as d^2×D/2, wherein d and D represent the shortest and longest diameters, respectively. Bulky disease is considered present when tumor burden is prominent in the mouse abdomen (tumor volume, >=2,000 mm^3).
In another experiment, mice are randomly allocated into eight groups to receive one of the following treatments via oral or ip administration. (a) Vehicle solution for 50 μL of sterile saline (oral); (b) Gemcitabine (25 mg/kg) biweekly for 4 weeks (ip); (c) IIIg (200 mg/kg) once weekly (oral); (d) IIIg (200 mg/kg) biweekly (oral); (e) IIIg (200 mg/kg) once daily (oral); (f) IIIg (400 mg/kg) once weekly (oral); (g) IIIg (400 mg/kg) biweekly (oral); (h) IIIg (400 mg/kg) once daily (oral). In all treatments, IIIg is given orally. Treatments are continued for 4 weeks. All mice are weighed weekly and observed for tumor growth. Tumor diameter is assessed with a Vernier caliper, and tumor volume (mm^3) is calculated as d^2×D/2, wherein d and D represent the shortest and longest diameters, respectively. Bulky disease is considered present when tumor burden is prominent in the mouse abdomen (tumor volume, >=2,000 mm^3).
When at least 6 of 10 mice in a treatment group presented with bulky disease, the median survival duration for that group is considered to be reached. At the median survival duration of the control group, the tumor growth in mice in all groups is evaluated using the bioluminescence emitted by the tumor cells. Bioluminescence imaging is conducted using a cryogenically cooled IVIS 100 imaging system coupled to a data acquisition computer running Living Image software (Xenogen). The mice are sacrificed by carbon dioxide inhalation when evidence of advanced bulky disease is present. The day of sacrifice is considered the day of death for survival evaluation.
Three days after the orthotopic implantation of 1.0×10^6 COL0357FG tumor cells in 50 μL of HBSS, when bioluminescence imaging confirmed that tumors are well established, mice are randomly allocated into four groups to receive one of the following treatments: (a) Vehicle solution for 50 μL of sterile saline; (b) IIIg (400 mg/kg) once daily for 4 weeks [(QD5+R2)×4]; (c) oxaliplatin (10 mg/kg) biweekly for 4 weeks (ip); (d) combination of IIIg (400 mg/kg) once daily for 4 weeks [(QD5+R2)×4] with oxaliplatin (10 mg/kg biweekly, ip). […]

[2] = test system: malignant cancer cells; conditions: malignant versus nonmalignant cells; Kirsten E, Kun E, Int J Mol Med 2000; cited from earlier work
[3] = intraperitoneal injection, 200 mg/kg QW×4
[4] = oral, 400 mg/kg [QD5+R2]×4, compared to no treatment and standard gemcitabine treatment

Compound: O=c1ccc2c(I)c([N+](=O)[O-])ccc2o1 [IIIg, 5-iodo-6-nitro-benzopyrone]
- Signs of toxicity ([1]; 100 mg/kg/day 2/week×4 weeks): without signs of toxicity
- Survival ([1]; 100 mg/kg/day 2/week×4 weeks): prolongs survival
- Tumor burden ([1]; 100 mg/kg/day 2/week×4 weeks): significantly reduces the tumor burden
- In vivo antitumor effect, comparison of schedules ([1]; 200 mg/kg/week once a week in comparison with 2 times/week or daily schedule, preliminary results): greater in vivo antitumor effect
- Anti-tumor activity of the combination ([1]; IIIg 400 mg/kg once daily [(QD5+R2)×4] with oxaliplatin 10 mg/kg biweekly, ip): potent synergistic anti-tumor activity
- Survival [1, 3]: prolongs the survival
- Tumor burden [1, 3]: potently reduces the tumor burden
- Survival [1, 4]: prolongs survival
- Tumor burden [1, 4]: significantly reduces the tumor burden
- Selective cytotoxicity [2]: selective cytotoxicity upon malignant cancer cells but not upon nonmalignant cells
